Patent US12448369B2 (Edgewise Therapeutics, Inc., priority 2023, dated 2025)

Tests used:
[1] = test system: Rabbit Psoas myofibrils (skeletal myosin ATPase); assay: Myofibril ATPase assay, rabbit psoas (skeletal) myofibrils; format: biochemical; settings: rabbit psoas myofibrils
How it was run: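 ATPase activity of Triton-washed myofibrils was measured by PK/LDH coupling, following NADH loss at 340 nm every 1.5–2 min for 75 min in PIPES/Ca/EGTA buffer at pH 7.0. Slopes, normalized to vehicle (100%), were fitted to a 4-parameter logistic model. Values are Y75 (25% inhibition) or Y125 (activators).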

[2] = test system: Porcine atria myofibrils (atrial myosin ATPase); assay: Myofibril ATPase assay, porcine atria myofibrils; format: biochemical; settings: porcine atria myofibrils
How it was run: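 Porcine atrial myofibrils were tested in a PK/LDH-coupled system where ADP from myosin ATPase drives NADH oxidation. Absorbance at 340 nm was read every 1.5-2 min for 75 min and slopes were normalized to vehicle wells. A 4-parameter logistic fit gave Y75 (25% inhibition) or Y125 (activation) concentrations.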

[3] = biological target: T1, Porcine ventricle myofibrils (ventricular myosin ATPase) (Sus scrofa, UniProt P79293); assay: Myofibril ATPase assay, porcine ventricle myofibrils; format: biochemical, porcine (Yucatan minipigs); settings: porcine ventricle myofibrils
T1 construct: Myofibrils from porcine cardiac muscle was isolated from the left ventricle of Yucatan minipigs; tissue Exemplar Genetics; host or cells: left ventricle of Yucatan minipigs, myofibrils prepared in house
How it was run: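 In a coupled enzyme format, ADP from myofibril ATPase drives NADH oxidation, monitored kinetically at 340 nm for 75 min using minipig ventricle myofibrils. Effective concentrations giving 25% loss or gain of activity relative to vehicle were calculated from 4-parameter fits.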

[4] = Y75 value (75% activity relative to no compound)

T1 sequence (P79293 whole entry): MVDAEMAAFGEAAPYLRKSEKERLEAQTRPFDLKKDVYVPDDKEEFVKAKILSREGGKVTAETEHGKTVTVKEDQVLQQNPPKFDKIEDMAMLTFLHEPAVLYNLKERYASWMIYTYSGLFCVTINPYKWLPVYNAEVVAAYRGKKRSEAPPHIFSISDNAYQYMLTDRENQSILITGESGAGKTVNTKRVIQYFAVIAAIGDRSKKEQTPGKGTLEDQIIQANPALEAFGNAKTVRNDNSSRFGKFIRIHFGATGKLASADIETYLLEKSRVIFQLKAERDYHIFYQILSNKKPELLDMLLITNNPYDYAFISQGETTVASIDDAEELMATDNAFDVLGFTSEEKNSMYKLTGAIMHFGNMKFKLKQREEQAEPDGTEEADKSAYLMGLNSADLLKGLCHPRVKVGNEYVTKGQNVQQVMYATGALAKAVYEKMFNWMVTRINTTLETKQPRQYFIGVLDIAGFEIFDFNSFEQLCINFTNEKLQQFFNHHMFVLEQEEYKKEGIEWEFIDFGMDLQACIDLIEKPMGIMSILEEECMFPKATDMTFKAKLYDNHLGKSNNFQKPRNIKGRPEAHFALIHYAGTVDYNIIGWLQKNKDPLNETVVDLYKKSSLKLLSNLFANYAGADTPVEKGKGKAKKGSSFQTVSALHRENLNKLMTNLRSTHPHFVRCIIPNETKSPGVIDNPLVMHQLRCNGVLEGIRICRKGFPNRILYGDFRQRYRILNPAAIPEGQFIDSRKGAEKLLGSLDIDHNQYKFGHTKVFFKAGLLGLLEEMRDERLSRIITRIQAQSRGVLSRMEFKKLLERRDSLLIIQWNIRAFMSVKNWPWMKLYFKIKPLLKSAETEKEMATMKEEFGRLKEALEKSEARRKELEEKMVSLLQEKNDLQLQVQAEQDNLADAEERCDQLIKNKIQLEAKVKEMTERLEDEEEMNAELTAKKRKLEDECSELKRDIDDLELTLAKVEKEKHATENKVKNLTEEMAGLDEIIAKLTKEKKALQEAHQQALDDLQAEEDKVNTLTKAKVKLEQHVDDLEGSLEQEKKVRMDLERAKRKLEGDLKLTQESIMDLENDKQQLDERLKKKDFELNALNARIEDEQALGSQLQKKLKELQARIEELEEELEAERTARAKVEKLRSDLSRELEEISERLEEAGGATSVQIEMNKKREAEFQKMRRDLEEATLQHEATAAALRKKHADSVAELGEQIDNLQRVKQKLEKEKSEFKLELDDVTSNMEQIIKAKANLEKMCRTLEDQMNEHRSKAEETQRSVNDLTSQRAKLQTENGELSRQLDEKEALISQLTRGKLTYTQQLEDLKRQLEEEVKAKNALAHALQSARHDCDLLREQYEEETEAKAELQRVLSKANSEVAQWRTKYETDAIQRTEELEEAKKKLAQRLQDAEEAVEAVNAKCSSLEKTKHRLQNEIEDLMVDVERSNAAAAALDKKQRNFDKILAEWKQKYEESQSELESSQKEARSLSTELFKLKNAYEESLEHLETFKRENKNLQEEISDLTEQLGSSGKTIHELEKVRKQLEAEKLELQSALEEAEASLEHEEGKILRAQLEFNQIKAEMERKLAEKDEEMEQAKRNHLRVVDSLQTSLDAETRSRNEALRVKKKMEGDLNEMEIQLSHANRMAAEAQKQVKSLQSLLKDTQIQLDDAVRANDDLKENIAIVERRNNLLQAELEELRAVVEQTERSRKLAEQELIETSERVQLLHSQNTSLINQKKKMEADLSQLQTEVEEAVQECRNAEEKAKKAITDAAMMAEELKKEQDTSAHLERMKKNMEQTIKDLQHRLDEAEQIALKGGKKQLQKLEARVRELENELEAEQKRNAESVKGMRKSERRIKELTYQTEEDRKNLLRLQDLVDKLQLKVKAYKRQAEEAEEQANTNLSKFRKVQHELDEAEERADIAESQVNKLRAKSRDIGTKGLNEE

Row | SMILES | Skeletal EC25 ([1]; Y75 value (no ‡ mark)) | Atrial EC25 ([2]; Y75 value (no ‡ mark)) | Ventricular EC25 ([3]; Y75 value (no ‡ mark)) | Skeletal EC25 ([1]; Y75 value) | Atrial EC25 [2, 4] | Ventricular EC25 ([3]; Y75 value)
1 | C[C@H](NC(=O)[C@@H](C)c1c(C(F)(F)F)c2c(F)cccc2[nH]c1=O)c1ccc(F)cc1F (single isomer, unassigned) [compound 97] | 230 nM | 190 nM | 5340 nM | – | – | –
2 | C[C@H](NC(=O)Cc1cc2nc(F)ccc2[nH]c1=O)c1ccc(F)cc1F [compound 392] | – | – | – | 70 nM | 130 nM | 2650 nM
3 | CC(C(=O)N[C@@H](C)c1ccc(F)cc1F)c1cc2c(C(F)(F)F)nccc2[nH]c1=O (single isomer, unassigned) [compound 3518] | – | – | – | 9370 nM | 2050 nM | 100000 nM
4 | Cc1nccc2[nH]c(=O)c(CC(=O)N[C@H]3CNc4cc(F)cc(F)c43)c(C)c12 (single isomer, unassigned) [compound 182] | – | – | – | 1760 nM | 8600 nM | 35910 nM
5 | C[C@@H](NC(=O)Cc1cc2cc(F)ccc2[nH]c1=O)c1ncc(C#N)cn1 (single isomer, unassigned) [compound 2029] | 3210 nM | 1260 nM | 18010 nM | – | – | –
6 | C[C@H](NC(=O)Cc1cc2cc(F)c(F)cc2[nH]c1=O)c1cnc(C#N)nc1 [compound 1075] | 8390 nM | 16510 nM | 15410 nM | – | – | –
7 | Cc1nccc2[nH]c(=O)c(CC(=O)N[C@@H]3CCc4cc(C#N)cc(F)c43)c(C)c12 (single isomer, unassigned) [compound 197] | – | – | – | 4230 nM | 2800 nM | 49430 nM
8 | Cc1c(CC(=O)N[C@@H](C)c2ncc(C#N)cc2F)c(=O)[nH]c2ccc(C(F)(F)F)nc12 [compound 147] | – | – | – | 60 nM | 20 nM | 120 nM
9 | C[C@H](NC(=O)[C@H](C)c1cc2c(C#N)nccc2[nH]c1=O)c1ccc(F)cc1F (single isomer, unassigned) [compound 360] | – | – | – | 50 nM | 100000 nM | 100000 nM
10 | Cc1c(CC(=O)N[C@H](C)c2ccc(C#N)nn2)c(=O)[nH]c2ccc(F)cc12 [compound 1119] | 220 nM | 480 nM | 1180 nM | – | – | –
11 | Cc1c(CC(=O)N[C@H](C)c2ccc(C#N)cc2F)c(=O)[nH]c2ccc(F)c(F)c12 [compound 65] | 20 nM | 230 nM | 220 nM | – | – | –
12 | Cc1cc(C#N)nnc1[C@H](C)NC(=O)Cc1c(C)c2c(F)c(F)ccc2[nH]c1=O [compound 1136] | 50 nM | 140 nM | 120 nM | – | – | –
13 | Cc1c(CC(=O)N[C@@H](C)c2ncc(C#N)cc2F)c(=O)[nH]c2ccc(F)cc12 [compound 1107] | 30 nM | 120 nM | 150 nM | – | – | –
14 | Cc1nccc2[nH]c(=O)c(C3(C(=O)N[C@@H](C)c4ncc(C#N)cc4F)CC3)c(C)c12 (single isomer, unassigned) [compound 3507] | – | – | – | 100000 nM | 2610 nM | 18820 nM
15 | Cc1c(CC(=O)N[C@@H](C)c2ccc(C#N)cc2F)c(=O)[nH]c2ccc(F)c(F)c12 [compound 66] | 10 nM | 50 nM | 60 nM | – | – | –
16 | CNc1nccc2[nH]c(=O)c(CC(=O)N[C@@H](C)c3ccc(F)cc3F)c(C)c12 [compound 354] | – | – | – | 190 nM | 2110 nM | 49130 nM
17 | Cc1c(CC(=O)N[C@@H](C)c2ccc(C#N)cc2F)c(=O)[nH]c2cnnc(C#N)c12 [compound 172] | – | – | – | 40 nM | 100 nM | 3780 nM

Row | SMILES | Skeletal EC25 ([1]; Y75 value (no ‡ mark)) | Atrial EC25 ([2]; Y75 value (no ‡ mark)) | Ventricular EC25 ([3]; Y75 value (no ‡ mark)) | Skeletal EC25 ([1]; Y75 value) | Atrial EC25 [2, 4] | Ventricular EC25 ([3]; Y75 value)
18 | CCNc1nccc2[nH]c(=O)c(CC(=O)N[C@@H](C)c3ccc(F)cc3F)c(C)c12 [compound 351] | – | – | – | 60 nM | 140 nM | 970 nM
19 | C[C@H](NC(=O)[C@@H](C)c1cc2c(Br)nccc2[nH]c1=O)c1ccc(F)cc1F (single isomer, unassigned) [compound 344] | – | – | – | 230 nM | 9520 nM | 90740 nM
20 | Cc1c(C2(C(=O)N[C@H](C)c3ncc(C#N)cc3F)CC2)c(=O)[nH]c2ccc(F)cc12 (single isomer, unassigned) [compound 2596] | 160 nM | 110 nM | 550 nM | – | – | –
21 | Cc1ccccc1[C@H](C)NC(=O)Cc1c(C)c2c(C)nccc2[nH]c1=O (single isomer, unassigned) [compound 327] | – | – | – | 670 nM | 3290 nM | 9240 nM
22 | COc1ccc2[nH]c(=O)c(C(C)C(=O)N[C@@H](C)c3ccc(F)cc3F)cc2c1Cl (stereo partly drawn) [compound 87] | 100000 nM | 100000 nM | 100000 nM | – | – | –
23 | Cc1cc(F)cc(F)c1[C@H](C)NC(=O)Cc1c(C)c2c(C)nccc2[nH]c1=O (single isomer, unassigned) [compound 403] | – | – | – | 190 nM | 40230 nM | 2080 nM
24 | Cc1c(CC(=O)N[C@H](CO)c2ccc(C#N)cc2F)c(=O)[nH]c2ccc(C(F)(F)F)nc12 [compound 218] | – | – | – | 14860 nM | 100000 nM | 100000 nM
25 | Cc1c(CC(=O)N[C@@H](C)c2ccc(F)cc2F)c(=O)[nH]c2ccc(O)c(C#N)c12 [compound 84] | 7240 nM | 2520 nM | 55560 nM | – | – | –
26 | C[C@@H](NC(=O)Cc1c(C2CC2)c2cnccc2[nH]c1=O)c1ccc(C#N)cn1 [compound 140] | – | – | – | 42180 nM | 100000 nM | 100000 nM
27 | Cc1c(CC(=O)N[C@H]2c3c(F)cc(F)cc3OC2(C)C)c(=O)[nH]c2ccnc(C#N)c12 (single isomer, unassigned) [compound 187] | – | – | – | 50 nM | 110 nM | 1360 nM
28 | Cc1ccc([C@H](C)NC(=O)Cc2c(C)c3c(C)nccc3[nH]c2=O)cc1 (single isomer, unassigned) [compound 306] | – | – | – | 5050 nM | 11750 nM | 100000 nM
29 | Cc1c(C(F)(F)C(=O)N[C@@H](C)c2ncc(F)cc2F)c(=O)[nH]c2ccc(F)cc12 (single isomer, unassigned) [compound 4820] | 110 nM | 120 nM | 610 nM | – | – | –
30 | COC[C@H](NC(=O)Cc1c(C)c2c(C)nccc2[nH]c1=O)c1ccc(C#N)cc1F [compound 169] | – | – | – | 150 nM | 1060 nM | 10520 nM
31 | C[C@H](NC(=O)[C@H](C)c1cc2c(F)c(F)ccc2[nH]c1=O)c1ccc(F)cc1F (single isomer, unassigned) [compound 111] | 110 nM | 100 nM | 100000 nM | – | – | –
32 | Cc1nccc2[nH]c(=O)c(CC(=O)N[C@@H](C)c3ccc(F)cc3F)c(C)c12 [compound 433] | – | – | – | 30 nM | 150 nM | 640 nM
33 | Cc1nccc2[nH]c(=O)c(CC(=O)N[C@H](CO)c3ncc(C#N)cc3F)c(C)c12 (single isomer, unassigned) [compound 247] | – | – | – | 4600 nM | 34930 nM | 100000 nM
